Data: ChEMBL document CHEMBL1153375, “Synthesis and antibacterial activities of N-glycosylated derivatives of tyrocidine A, a macrocyclic peptide antibiotic” (2009)
≈ marks a conversion by molar mass, not a printed value. Calls of active or inactive are those of the source. No cut-off for these calls is given here.

How the values were obtained:
Bacillus subtilis [1] = assay: Antibacterial activity against Bacillus subtilis CMCC-B 63501 by twofold serial dilution method; type: functional
Bacillus subtilis [2] = assay: Antibacterial activity against Bacillus subtilis CMCC-B 63501 up to 500 ug/ml by twofold serial dilution method; type: functional, organism-based
[3] = Bacillus subtilis, read-out: MIC

MIC (Bacillus subtilis [1]; [3])	Compound	Activity (Bacillus subtilis [2])	further results
62 µg/mL (≈ 37.8 µM)	CC(C)C[C@@H]1NC(=O)[C@H](CCCN)NC(=O)[C@H](C(C)C)NC(=O)[C@H](Cc2ccc(O)cc2)NC(=O)[C@H](CCC(N)=O)NC(=O)[C@H](CC(=O)NCCO[C@@H]2O[C@H](CO)[C@@H](O[C@@H]3O[C@H](CO)C(O)[C@H](O)[C@H]3O)[C@H](O)[C@H]2O)NC(=O)C(Cc2ccccc2)NC(=O)[C@H](Cc2ccccc2)NC(=O)[C@@H]2CCCN2C(=O)C(Cc2ccccc2)NC1=O (single isomer, unassigned)	–	–
–	CC(=O)N[C@@H]1[C@@H](O)[C@H](O)[C@@H](CO)O[C@H]1NC(=O)C[C@@H]1NC(=O)C(Cc2ccccc2)NC(=O)[C@H](Cc2ccccc2)NC(=O)[C@@H]2CCCN2C(=O)C(Cc2ccccc2)NC(=O)[C@H](CC(C)C)NC(=O)[C@H](CCCN)NC(=O)[C@H](C(C)C)NC(=O)[C@H](Cc2ccc(O)cc2)NC(=O)[C@H](CCC(N)=O)NC1=O (single isomer, unassigned)	inactive	–
–	CC(=O)N[C@@H]1[C@@H](O)[C@H](O[C@@H]2O[C@H](CO)[C@@H](O)[C@H](O)[C@H]2NC(C)=O)[C@@H](CO)O[C@H]1NC(=O)C[C@@H]1NC(=O)C(Cc2ccccc2)NC(=O)[C@H](Cc2ccccc2)NC(=O)[C@@H]2CCCN2C(=O)C(Cc2ccccc2)NC(=O)[C@H](CC(C)C)NC(=O)[C@H](CCCN)NC(=O)[C@H](C(C)C)NC(=O)[C@H](Cc2ccc(O)cc2)NC(=O)[C@H](CCC(N)=O)NC1=O (single isomer, unassigned)	inactive	–
–	CC(C)C[C@@H]1NC(=O)[C@H](CCCN)NC(=O)[C@H](C(C)C)NC(=O)[C@H](Cc2ccc(O)cc2)NC(=O)[C@H](CCC(N)=O)NC(=O)[C@H](CC(N)=O)NC(=O)[C@@H](Cc2ccccc2)NC(=O)[C@H](Cc2ccccc2)NC(=O)[C@@H]2CCCN2C(=O)[C@@H](Cc2ccccc2)NC1=O (stereo in doubt) [TYROCIDINE A]	–	MIC (Bacillus subtilis [1]): 20 µg/mL (≈ 15.7 µM)
31 µg/mL (≈ 24.4 µM)	CC(C)C[C@@H]1NC(=O)[C@H](CCCN)NC(=O)[C@H](C(C)C)NC(=O)[C@H](Cc2ccc(O)cc2)NC(=O)[C@H](CCC(N)=O)NC(=O)[C@H](CC(N)=O)NC(=O)[C@@H](Cc2ccccc2)NC(=O)[C@H](Cc2ccccc2)NC(=O)[C@@H]2CCCN2C(=O)[C@@H](Cc2ccccc2)NC1=O (stereo in doubt; 1) [TYROCIDINE A]	–	–
